# Earlier results, collected in patent US10172842B2, “Sustained release oral dosage form containing dalfampridine” (PharmaDax Inc., priority 2015, dated 2019).
# Tests used:
# [1] = in the absence of other risk factors
# [2] = plasma concentrations lower than 13 ng/mL
smiles,measurement,setting,value
"Nc1ccncc1 [dalfampridine, 4-aminopyridine]",plasma dalfampridine concentration considered a likely threshold for increased risk of seizure,[1],approximately 100 ng/mL
same,changes in walking speed in MS patients,[2],low percentage changes in walking speed
